The record followed here is BindingDB's records for doi:10.1021/acs.jmedchem.5b00109 (Peking Union Medical College, 2015).

pIC50: −log10 of the molar value. Where only a bound is given, the exact number is not on record here.

The nature of the assay: Inhibition of HIV-1 HXB2 gp41 N-terminal heptad repeat-mediated fusion between infected HL2/3 cells to target TZM-bl cells after 6 hrs by luciferase reporter gene assay.

For H-MTWEEWDKKIEEYTKKIEELIKKS-OH, the negative-log IC50 (pIC50) is 8.64.
Then H-TTWEEWDKKIEEYTKKIEELIKKS-OH, with 7.74.
As for “H-WEAWDRAIAEYAARIEALIRAAQEQQEKNEAALREL-OH”, the figure is 9.47.
Then “H-MTWEAWDRAIAEYAARIEALIRAAQEQQEKNEAALREL-OH”, with 9.07.
H-MTWEAWDRAIAEYAARIEALIR-OH gave a pIC50 of 7.23.
As for H-MTWEEWDKKIEEYTKKIEELI-OH, the figure is 8.66; as for H-TTWEAWDRAIAEYAARIEALIR-OH, below 5.65.
